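Method: 48-hour compound exposure of cells in 96-well plates, five concentrations, linear interpolation of endpoints. TGI denotes the concentration required for complete inhibition of growth.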
Tests used:
Test in all cases: NCI tumour cell line growth inhibition, 48 h
NCI-H460 lung = tested on: NCI-H460 lung
NCI-H23 lung = tested on: NCI-H23 lung
RXF 393 renal = tested on: RXF 393 renal
HCC-2998 colon = tested on: HCC-2998 colon
SF-268 CNS = tested on: SF-268 CNS
LOX IMVI melanoma = tested on: LOX IMVI melanoma
MOLT-4 leukemia = tested on: MOLT-4 leukemia
HS 578T breast = tested on: HS 578T breast
ACHN renal = tested on: ACHN renal
UO-31 renal = tested on: UO-31 renal
SK-OV-3 ovarian = tested on: SK-OV-3 ovarian
SN12C renal = tested on: SN12C renal
HL-60(TB) leukemia = tested on: HL-60(TB) leukemia
OVCAR-8 ovarian = tested on: OVCAR-8 ovarian
OVCAR-5 ovarian = tested on: OVCAR-5 ovarian
EKVX NSCLC = tested on: EKVX NSCLC
IGROV1 ovarian = tested on: IGROV1 ovarian
MCF7 breast = tested on: MCF7 breast
SW-620 colon = tested on: SW-620 colon
M14 melanoma = tested on: M14 melanoma
HCT-15 colon = tested on: HCT-15 colon
NCI/ADR-RES ovarian = tested on: NCI/ADR-RES ovarian
OVCAR-4 ovarian = tested on: OVCAR-4 ovarian
CCRF-CEM leukemia = tested on: CCRF-CEM leukemia
HT29 colon = tested on: HT29 colon
KM12 colon = tested on: KM12 colon
SF-539 CNS = tested on: SF-539 CNS
SR leukemia = tested on: SR leukemia
SK-MEL-5 melanoma = tested on: SK-MEL-5 melanoma
RPMI-8226 leukemia = tested on: RPMI-8226 leukemia
BT-549 breast = tested on: BT-549 breast
HOP-92 NSCLC = tested on: HOP-92 NSCLC
786-0 renal = tested on: 786-0 renal
CAKI-1 renal = tested on: CAKI-1 renal
TK-10 renal = tested on: TK-10 renal
A549 NSCLC = tested on: A549 NSCLC
U251 CNS = tested on: U251 CNS
SNB-19 CNS = tested on: SNB-19 CNS
SNB-75 CNS = tested on: SNB-75 CNS
SK-MEL-28 melanoma = tested on: SK-MEL-28 melanoma
K-562 leukemia = tested on: K-562 leukemia
OVCAR-3 ovarian = tested on: OVCAR-3 ovarian

COc1cc(/C=C2\CCc3ccccc3C2=O)ccc1O
TGI (NCI-H460 lung): 34.4 µM | TGI (NCI-H23 lung): 52.3 µM | TGI (RXF 393 renal): 25 µM | TGI (HCC-2998 colon): 33.7 µM | TGI (SF-268 CNS): 74.1 µM | TGI (LOX IMVI melanoma): 32.8 µM | TGI (MOLT-4 leukemia): 69.1 µM | TGI (HS 578T breast): > 100 µM | TGI (ACHN renal): 58.1 µM | TGI (UO-31 renal): 27.4 µM | TGI (SK-OV-3 ovarian): 91.5 µM | TGI (SN12C renal): 49.7 µM | TGI (HL-60(TB) leukemia): 30.1 µM | TGI (OVCAR-8 ovarian): 37.1 µM | TGI (OVCAR-5 ovarian): 27.2 µM | TGI (EKVX NSCLC): 59 µM | TGI (IGROV1 ovarian): > 100 µM | TGI (MCF7 breast): 23.2 µM | TGI (SW-620 colon): 33.9 µM | TGI (M14 melanoma): 33.5 µM | TGI (HCT-15 colon): 75.7 µM | TGI (NCI/ADR-RES ovarian): 78.8 µM | TGI (OVCAR-4 ovarian): 44.8 µM | TGI (CCRF-CEM leukemia): > 100 µM | TGI (HT29 colon): 32.7 µM | TGI (KM12 colon): 30.8 µM | TGI (SF-539 CNS): 30.4 µM | TGI (SR leukemia): 48 µM | TGI (SK-MEL-5 melanoma): 35.3 µM | TGI (RPMI-8226 leukemia): 50.2 µM | TGI (BT-549 breast): 37.7 µM | TGI (HOP-92 NSCLC): 45.2 µM | TGI (786-0 renal): 27.3 µM | TGI (CAKI-1 renal): > 100 µM | TGI (TK-10 renal): 37.8 µM | TGI (A549 NSCLC): 53.2 µM | TGI (U251 CNS): 31.7 µM | TGI (SNB-19 CNS): 30.2 µM | TGI (SNB-75 CNS): 79.1 µM | TGI (SK-MEL-28 melanoma): 38.8 µM | TGI (K-562 leukemia): 79.7 µM | TGI (OVCAR-3 ovarian): 36.1 µM

— PubChem BioAssay (NCI)
